Test results: patent US8710045B2, “Agents for preventing and treating disorders involving modulation of the ryanodine receptors” (The Trustees of Columbia University in the City of New York, priority 2004, dated 2014)
“And” between values parts separate entries of the source, which are not always exact repeats. Equal values may be shown once.

Legend:
[1] = molecular target: hERG current (Homo sapiens, UniProt Q12809); assay: hERG current, PatchXpress 7000A automatic parallel patch clamp in hERG-transfected HEK 293 cells (Example 6); details: for Individual Data (% Inhibition): single cell
Description: HEK293 cells were transfected with a plasmid containing the hERG cDNA and a neomycin resistance gene. Stable transfectants were selected by culturing the cells in the presence of G418. The selection pressure was maintained by continued culture in the presence of G418. […] Cells for use in electrophysiology were cultured in 35 mm dishes.
Onset and steady state block of hERG current was measured using a pulse pattern with fixed amplitudes (conditioning prepulse: +20 mV for 2 seconds; test pulse: −50 mV for 2 seconds) repeated at 10 second intervals, from a holding potential of −80 mV. Peak tail current was measured during the 2 second step to −50 mV. A steady state was maintained for at least 30 seconds before applying the test compound or the positive control. Peak tail current was monitored until a new steady state was achieved. Test compound concentrations were applied cumulatively in ascending order without washout between applications.
Data acquisition and analysis was performed using the suite of pCLAMP (Vre. 8.2) programs (Axon Instruments, Union City, Calif.). Steady state was defined by the limiting constant rate of change with time (linear time dependence). The steady state before and after application of the test or control compounds was used to calculate the percentage of current inhibited at each concentration. […] Nonlinear squares fits were solved with the Solver add-in for Excel 2000 (Microsoft, Redmond, Wash.).
Multiple compounds of the invention were tested for their effects on hERG currents. The compounds tested were: ARM036-Na, ARM047, ARM048, ARM050, ARM057, ARM064, ARM074, ARM075, ARM076, ARM077, ARM101, ARM102, ARM103, ARM104, ARM106, ARM107 and ARM26. […] Electrophysiological recordings were made using the PatchXpress 7000 A (Molecular Devices) automatic parallel patch clamp system. […] The duration of exposure to each test concentration was 5 minutes.

[2] = molecular target: T1, PKA-phosphorylated RyR2 (Homo sapiens, UniProt Q92736); assay: FKBP12.6 rebinding assay: FKBP12.6 binding to PKA-phosphorylated RyR2 in cardiac SR; details: compound 0.5-1000 nM; Michaelis-Menten curve fitting
T1 construct: from tissue
Description: Samples are centrifuged at 95,000 g for 10 min and the pellets are washed three times in 0.2 ml imidazole buffer. The final pellets are pooled and resuspended in imidazole buffer (final concentration≈10 μg/μl). […] Samples then are centrifuged at 100,000 g for 10 minutes and pellets washed 3 times with imidizol buffer. […] Immunoblots are developed using an anti-FKBP antibody (1:3,000 dilution). […] The intracellular solution contains (in mM): CsCl, 60; CaCl2, 1; EGTA, 11; MgCl2, 1; K2ATP, 5; HEPES, 10; aspartic acid, 50; pH 7.4 (CsOH). Under these conditions, it is expected that the measured current was carried by Ba^2+ primarily through L-type calcium channels which is referred to as ICa,L. Drugs are applied by a local solution changer and reach the cell membrane within 1 s.
The FKBP12.6 rebinding assay described above is used to determine the amount of FKBP12.6 binding to PKA-phosphorylated RyR2 at various concentrations (0.5-1000 nM) of the compounds shown. EC50 values are calculated using Michaelis-Menten curve fitting.
The EC50 values are calculated using Michaelis-Menten curve fitting.

hERG current, sequence (Q12809 whole entry): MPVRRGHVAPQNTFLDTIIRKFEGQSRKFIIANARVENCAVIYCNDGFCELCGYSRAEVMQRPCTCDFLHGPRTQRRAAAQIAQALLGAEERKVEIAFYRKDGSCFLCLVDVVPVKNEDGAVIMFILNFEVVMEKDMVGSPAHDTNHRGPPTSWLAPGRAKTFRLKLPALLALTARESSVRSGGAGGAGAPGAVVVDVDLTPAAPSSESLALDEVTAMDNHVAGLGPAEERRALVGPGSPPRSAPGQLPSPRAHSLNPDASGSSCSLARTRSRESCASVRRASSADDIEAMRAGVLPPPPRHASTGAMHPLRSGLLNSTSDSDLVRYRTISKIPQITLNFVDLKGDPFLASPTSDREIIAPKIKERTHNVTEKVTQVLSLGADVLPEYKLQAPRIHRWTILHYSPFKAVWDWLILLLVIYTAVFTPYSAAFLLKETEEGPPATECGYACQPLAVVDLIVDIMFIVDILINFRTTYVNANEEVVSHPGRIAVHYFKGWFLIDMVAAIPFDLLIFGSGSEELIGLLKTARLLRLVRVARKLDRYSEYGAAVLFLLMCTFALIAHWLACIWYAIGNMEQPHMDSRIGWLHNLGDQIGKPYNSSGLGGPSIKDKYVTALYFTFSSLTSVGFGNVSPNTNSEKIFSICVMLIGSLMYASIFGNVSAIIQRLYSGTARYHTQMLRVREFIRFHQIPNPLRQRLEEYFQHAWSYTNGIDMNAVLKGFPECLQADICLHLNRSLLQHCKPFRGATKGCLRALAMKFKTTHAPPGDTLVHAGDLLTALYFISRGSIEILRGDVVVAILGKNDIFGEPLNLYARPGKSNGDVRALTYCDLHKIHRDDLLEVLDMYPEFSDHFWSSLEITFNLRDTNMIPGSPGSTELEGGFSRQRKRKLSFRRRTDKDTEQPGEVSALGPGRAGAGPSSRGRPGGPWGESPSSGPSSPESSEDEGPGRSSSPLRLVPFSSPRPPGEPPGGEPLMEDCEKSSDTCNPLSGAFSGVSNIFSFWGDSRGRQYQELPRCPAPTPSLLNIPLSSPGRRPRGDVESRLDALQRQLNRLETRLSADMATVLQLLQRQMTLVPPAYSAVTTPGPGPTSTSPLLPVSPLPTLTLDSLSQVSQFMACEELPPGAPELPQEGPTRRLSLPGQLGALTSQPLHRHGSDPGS

Compound	EC50 [2] [nM]	further results
COc1ccc2c(c1)CN(C(=O)C(=O)[O-])CCS2.[Na+] [ARM036-Na]	–	Mean % hERG Inhibition ([1]; 0.01 μM): 0.2%; Individual Data (% Inhibition) ([1]; 0.01 μM): 0.0% and 0.3%; Mean % hERG Inhibition ([1]; 0.1 μM): 5.0%; Individual Data (% Inhibition) ([1]; 0.1 μM): 10.0% and 0.0%; Mean % hERG Inhibition ([1]; 1 μM): 5.5%; Individual Data (% Inhibition) ([1]; 1 μM): 2.4% and 8.6%; Mean % hERG Inhibition ([1]; 10 μM): 6.7%; Individual Data (% Inhibition) ([1]; 10 μM): 5.1% and 8.2%; hERG current inhibition at the highest concentration tested ([1]; highest concentration tested (10 μM)): less than 50%
COc1ccc2c(c1)CN(S(=O)(=O)CCN1CCC(Cc3ccccc3)CC1)CCS2 [S1]	150	–
CCCCN(CCCC)CCS(=O)(=O)N1CCSc2ccc(OC)cc2C1 [S2]	211	–
COc1ccc2c(c1)CN(S(C)(=O)=O)CCS2 [S4]	102	–
COc1ccc2c(c1)CN(S(=O)(=O)c1ccc(C)cc1)CCS2 [S5]	208	–
COc1ccc2c(c1)CN(C(=O)CCC(=O)N1CCSc3ccc(OC)cc3C1)CCS2 [S19]	265	–
COc1ccc2c(c1)CN(C(=O)c1cccc(C(=O)N3CCSc4ccc(OC)cc4C3)n1)CCS2 [S22]	355	–
COc1ccc2c(c1)CN(C(=O)CCN1CCC(Cc3ccccc3)CC1)CCS2(=O)=O [S23]	268	–
COc1ccc2c(c1)C(=O)NCCS2 [S25]	40	–
COc1ccc2c(c1)CN(C(=O)c1ccc(N=[N+]=[N-])cc1O)CCS2 [S40]	100	–
COc1ccc2c(c1)CN(C(=O)C(=O)NCCSSCCNC(=O)c1ccc(N=[N+]=[N-])cc1[N+](=O)[O-])CCS2 [S43]	80	–
COc1ccc2c(c1)CN(C(=O)C(=O)NCCSSCCNC(=O)C(=O)N1CCSc3ccc(OC)cc3C1)CCS2 [S44]	121	–
COc1ccc2c(c1)CN(C(=O)C(=O)NCCSSCCNC(=O)c1ccc(N=[N+]=[N-])cc1O)CCS2 [S45]	80	–

Second part, led by results:

EC50 [2] [nM]	Compound	further results
252	COc1ccc2c(c1)CN(C(=O)N1CCC(Cc3ccccc3)CC1)CCS2 [S6]	–
55	COc1ccc2c(c1)CN(C(=O)CI)CCS2 [S7]	–
205	COc1ccc2c(c1)CN(C(=O)c1ccccc1)CCS2 [S9]	–
181	COc1ccc2c(c1)CN(C(=O)Nc1ccccc1)CCS2 [S11]	–
197	COc1ccc2c(c1)CN(C(=S)Nc1ccccc1)CCS2 [S12]	–
~50	C=CC(=O)N1CCSc2ccc(OC)cc2C1 [S27]	–
44	COc1ccc2c(c1)CN(C(=O)CC(=O)O)CCS2 [S38]	–
150	COc1ccc2c(c1)CN(C(N)=O)CCS2 [S46]	–
